# Like-named read-outs stand apart in the source and are kept apart here.
# Key:
# M. incognita J2 larvae = test: Meloidogyne incognita in vitro larval mobility assay; type: in vivo; settings: 45 μM, 4 days; for Replicate 1 z-score / Replicate 2 z-score: z-score vs untreated DMSO wells; for pest or weed control at 45 µM: Meloidogyne incognita, 96 h
# Method: M. incognita (Kofoid & White) Chitwood Race 1 (originally isolated in Maryland) was used for all experiments, and was maintained on pepper (Capsicum annuum L.) cv. PA-136 in a greenhouse as previously described^44. Infective J2 juveniles were collected as described in ref. 45. The microwell dose-response experiments were carried out similarly to previously described protocols^44,46. In brief, 50 μL of deionized water was added to the wells of 96-well polystyrene plates and 0.5 μL of test compound (or DMSO alone) was added to each well. Approximately 35 J2s were then added to each well in 49.5 μL of deionized water. The chemicals were tested at 45 μM, and the final concentration of DMSO in each well was 0.5% (v/v). DMSO alone was added to 3 separate wells. The plates were covered with plastic adhesive strips, and the lids of the plates were sealed with parafilm. The plates were incubated at 25° C. without shaking for 4 days. The percent of worms that were immobile (% immobile) was quantified by counting the number of immobile worms after 4 days of incubation, dividing the number of immobile worms by the total number of worms in the well, and then multiplying by 100. Two replicates were performed for each treatment. The z-score for each treatment was calculated using the mean and standard deviation of the untreated DMSO control wells. The average % immobile value was calculated across the two replicates. A test compound was considered most promising if the z-score was greater than 1.645 in both replicates.
# M. hapla eggs = test: Meloidogyne hapla in vitro egg hatch assay; type: in vivo; settings: 45 μM; for Number of Hatched Eggs: 8 days at room temperature, about 90 eggs per well, tested once; for Number of Hatched Eggs z-score: 8 days, z-score vs 8 untreated DMSO wells
# Method: The M. hapla were originally obtained from a soil sample of muck soil from Ste-Clotilde, Quebec, Canada. Using tweezers, egg masses were carefully removed from root material from infested carrot roots. Eggs were liberated from the egg masses using a mild sodium hypochlorite bleaching protocol, whereby egg masses were bleached with a 10% commercial bleach (sodium hypochlorite) solution for 4 minutes with vigorous shaking, and then washed 5 times with deionized water. 50 μL of deionized water was added to each well of two 96-well polystyrene culture plates, and 0.5 μL of chemical (or DMSO alone) was added to each well. Approximately 90 eggs were added to each well in 49.5 ul of deionized water. The plates were sealed with parafilm and incubated for 8 days at room temperature without shaking in a Tupperware box filled with wet paper towels. After the 8-day incubation, the number of hatched eggs was counted for each treatment and for the untreated controls. Each chemical treatment was tested only once. 8 separate untreated DMSO controls were included in the experiment. The z-score for each treatment was calculated using the mean and standard deviation of the untreated DMSO control wells.
# [1] = average of the two replicates, read-out: Average % Immobile
# [2] = replicate 1, read-out: Replicate 1 % Immobile
# [3] = replicate 2, read-out: Replicate 2 % Immobile
Structure (SMILES),Replicate 1 z-score (M. incognita J2 larvae; replicate 1),Replicate 2 z-score (M. incognita J2 larvae; replicate 2),pest or weed control at 45 µM (M. incognita J2 larvae; [1]) [%],pest or weed control at 45 µM (M. incognita J2 larvae; [2]) [%],pest or weed control at 45 µM (M. incognita J2 larvae; [3]) [%],Number of Hatched Eggs (M. hapla eggs),Number of Hatched Eggs (M. hapla eggs; listed as 1-48),Number of Hatched Eggs z-score (M. hapla eggs),Number of Hatched Eggs (M. hapla eggs; listed as 1-84),Number of Hatched Eggs (M. hapla eggs; listed as 1-161)
Brc1ccc(-c2cn3c(n2)SCC3)cc1 [I-48],[15.80],[5.11],69,100,38,0,completely inhibited egg hatching,[4.63],–,–
Clc1ccc(-c2cn3c(n2)SCC3)cc1 [I-49],[15.80],[16.33],–,100,100,2,–,[3.97],–,–
Cc1cn2cc(-c3ccc(OC(F)(F)F)cc3)nc2s1 [I-53],[3.33],[6.79],43.1,39,47.3,–,–,–,–,–
Cc1cn2cc(-c3ccc(OC(F)F)cc3)nc2s1 [I-54],[1.73],[2.15],26.4,31.1,21.7,–,–,–,–,–
FC(F)(F)Oc1ccc(-c2cn3ccsc3n2)cc1 [I-61],[8.86],[6.94],57.1,66,48.1,1,–,[4.30],–,–
Cc1csc2nc(-c3ccc(OC(F)(F)F)cc3)cn12 [I-62],–,–,–,–,–,3,–,[3.64],–,–
FC(F)Oc1ccc(-c2cn3ccsc3n2)cc1 [I-63],[15.80],[16.33],–,100,100,2,–,[3.97],–,–
Cc1csc2nc(-c3ccc(OC(F)F)cc3)cn12 [I-64],–,–,–,–,–,4,–,[3.31],–,–
FC(F)(F)c1ccc(-c2cn3ccsc3n2)cc1 [I-68],–,–,–,–,–,4,–,[3.31],–,–
CCOC(=O)c1ccc(-c2cn3ccsc3n2)cc1 [I-72],–,–,–,–,–,4,–,[3.31],–,–
Cc1cn2cc(-c3cccs3)nc2s1 [I-78],–,–,–,–,–,3,–,[3.64],–,–
COc1c(-c2cn3ccsc3n2)ccc2ccccc12 [I-81],–,–,–,–,–,3,–,[3.64],–,–
Clc1ccc(-c2cn3ccsc3n2)s1 [I-84],[13.56],[16.33],≥ 75,89.1,100,0,–,[4.63],completely inhibited egg hatching,–
Cc1csc2nc(-c3ccc(Cl)s3)cn12 [I-85],–,–,–,–,–,4,–,[3.31],–,–
Cc1sc2nc(-c3ccc(Cl)s3)cn2c1C [I-86],–,–,–,–,–,4,–,[3.31],–,–
N#Cc1ccc(-c2cn3ccsc3n2)cc1 [I-87],[6.98],[9.68],60.1,56.9,63.3,3,–,[3.64],–,–
Fc1ccccc1-c1cn2ccsc2n1 [I-89],[10.62],[12.27],≥ 75,74.7,77.6,3,–,[3.64],–,–
O=Cc1c(-c2ccc(Cl)cc2)nc2sccn12 [I-93],[15.80],[12.15],≥ 75,100,76.9,–,–,–,–,–
O=C(O)c1cn2cc(-c3ccccc3)nc2s1 [I-94],–,–,–,–,–,4,–,[3.31],–,–
c1ccc2cc(-c3cn4ccsc4n3)ccc2c1 [I-101],–,–,–,–,–,2,–,[3.97],–,–

Structure (SMILES),Replicate 1 z-score (M. incognita J2 larvae; replicate 1),Replicate 2 z-score (M. incognita J2 larvae; replicate 2),pest or weed control at 45 µM (M. incognita J2 larvae; [1]) [%],pest or weed control at 45 µM (M. incognita J2 larvae; [2]) [%],pest or weed control at 45 µM (M. incognita J2 larvae; [3]) [%],Number of Hatched Eggs (M. hapla eggs),Number of Hatched Eggs (M. hapla eggs; listed as 1-48),Number of Hatched Eggs z-score (M. hapla eggs),Number of Hatched Eggs (M. hapla eggs; listed as 1-84),Number of Hatched Eggs (M. hapla eggs; listed as 1-161)
COCc1nn2cc(-c3cccc(OC)c3)nc2s1 [I-108],–,–,–,–,–,4,–,[3.31],–,–
COCc1nn2cc(-c3ccc(C)c(C)c3)nc2s1 [I-109],–,–,–,–,–,4,–,[3.31],–,–
Fc1ccc(-c2cn3nc(Br)sc3n2)cc1 [I-113],[15.80],[15.32],–,100,94.4,–,–,–,–,–
c1ccc(-c2nc3sccn3n2)cc1 [I-116],[4.40],[2.43],33.7,44.2,23.2,2,–,[3.97],–,–
Nc1c(-c2ccc(Br)cc2)nc2sccn12 [I-118],–,–,–,–,–,2,–,[3.97],–,–
O=Cc1c(-c2ccccc2)nc2sccn12 [I-122],[14.96],[12.31],≥ 75,95.9,77.8,1,–,[4.30],–,–
Nc1c(-c2ccccc2)nc2sccn12 [I-128],[11.92],[13.69],≥ 75,81,85.5,–,–,–,–,–
CCc1nn2cc(-c3ccc(C)cc3C)nc2s1 [I-129],[2.18],[1.78],26.5,33.3,19.6,–,–,–,–,–
Cc1cn2cc(-c3ccc(N)cc3)nc2s1 [I-132],–,–,–,–,–,3,–,[3.64],–,–
COc1ccc(-c2nc3scc(C)n3c2C=O)cc1 [I-135],–,–,–,–,–,4,–,[3.31],–,–
COCc1nn2cc(-c3ccc(F)cc3)nc2s1 [I-141],[1.89],[4.06],32.1,31.9,32.2,–,–,–,–,–
COc1ccc(-c2cn3ccsc3n2)cc1 [I-142],[2.76],[1.68],27.6,36.2,19.1,–,–,–,–,–
COCc1nn2cc(-c3ccc(Cl)cc3)nc2s1 [I-144],[4.17],[6.85],45.4,43.1,47.6,4,–,[3.31],–,–
Cc1ccc(-c2nc3sccn3c2C=O)cc1 [I-152],[15.80],[14.75],–,100,91.3,–,–,–,–,–
CCOc1ccc(-c2cn3ccsc3n2)cc1 [I-153],–,–,–,–,–,2,–,[3.97],–,–
O=Cc1c(-c2ccc(F)cc2)nc2sccn12 [I-157],[15.40],[15.24],–,98,94,–,–,–,–,–
Cc1nn2cc(-c3ccc(Cl)cc3)nc2s1 [I-158],[3.12],[8.51],47.4,37.9,56.8,–,–,–,–,–
Brc1nn2cc(-c3ccccc3)nc2s1 [I-159],[15.34],[16.33],–,97.8,100,–,–,–,–,–
Cc1csc(-c2cn3cc(C)sc3n2)c1 [I-161],–,–,–,–,–,0,–,[4.63],–,completely inhibited egg hatching
